Assays:
Type in all cases: binding
[1] = biological target: T1, H. sapiens hinT H112N (human hinT^HN) (Homo sapiens, UniProt P49773, H112N); assay: isothermal titration calorimetry
T1 construct: gene HINT1
T1 sequence (P49773 1-126 H112N): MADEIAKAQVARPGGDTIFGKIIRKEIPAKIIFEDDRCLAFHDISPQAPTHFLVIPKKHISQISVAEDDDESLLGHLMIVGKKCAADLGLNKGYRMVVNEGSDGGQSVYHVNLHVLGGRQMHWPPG

[2] = biological target: T2, T. marianensis hinT H100N (Tm hinT^HN) (Thermaerobacter marianensis, UniProt E6SKA2, H100N); assay: isothermal titration calorimetry
T2 construct: gene Tmar_2180; expressed from pProEx in E. coli BL21, 6xHis cut by TEV, SEC

[3] = biological target: T3, E. coli hinT H101N (Ec hinT^HN) (Escherichia coli, UniProt P0ACE7, H101N); assay: isothermal titration calorimetry
T3 construct: expressed from pProEx in E. coli BL21, 6xHis cut by TEV, SEC; ATG replaces native TTG start
T3 sequence (P0ACE7 1-119 H101N): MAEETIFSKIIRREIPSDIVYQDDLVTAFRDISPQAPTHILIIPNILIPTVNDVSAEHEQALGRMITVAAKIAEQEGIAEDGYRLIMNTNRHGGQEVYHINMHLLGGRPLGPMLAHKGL

[4] = biological target: T1, H. sapiens hinT H112N (human hinT^HN); assay: competition pulldown with sucA-AMP, α-AMP immunoblot; details: GST-tagged hinT on beads, sucA-AMP 470 nM, GMP up to 11.75 μM, TBS with Triton X-100, 1 mM DTT, 4 °C; competitive

| SMILES | Kd [1] [µM] | Kd [2] [µM] | Kd [3] [µM] | competition pulldown with sucA-AMP, α-AMP immunoblot [4] |
| --- | --- | --- | --- | --- |
| Nc1ncnc2c1ncn2[C@@H]1O[C@H](COP(=O)(O)O)[C@@H](O)[C@H]1O [AMP] | 0.279 | 3 | 69 |  |
| Nc1nc2c(ncn2[C@@H]2O[C@H](COP(=O)(O)O)[C@@H](O)[C@H]2O)c(=O)[nH]1 [GMP] |  |  |  | increasing concentrations of GMP showed weaker competition with AMPylated proteins for binding to Hs hinT^HN |

From PMC12375108 (Nature Communications, 2025)
